Measured values: US11906523B2, “Signaling conjugates and methods of use” (VENTANA MEDICAL SYSTEMS, INC., priority 2012, dated 2024)
Each block holds one compound with its values, some of them ahead of it.

Key:
[1] = UV-Vis absorbance spectra of signaling conjugates and chromophores; type: physicochemical
Source text: The wavelength at which the maximum fraction of light is absorbed by a substance is referred to as λmax. Because this wavelength is absorbed to the greatest extent, it is typically referred to as the absorbance wavelength. […] While λmax designates the wavelength of maximum absorption, the FWHM designates the breadth of the spectral absorbance.
Trace A corresponds to the signaling conjugate used for FIG. 15(A) and trace B corresponds to the signaling conjugated used for FIG. 15(B); note that each signaling conjugate was analyzed with spectrometry in solution prior to staining and on the slide subsequent to having detected the HER2 (the dashed traces representing the spectra obtained on the tissue).

[2] = UV-Vis spectra of fast red and fast blue; type: physicochemical; details: ethyl acetate solutions, FIG. 8(B)
Source text: While providing a range of new colors for the recognition of targets within biological samples is useful alone, the presently disclosed signaling conjugates are particularly useful in multiplexed assays, as well as assays using translocation probes. FIG. 8(A) is a photomicrograph of a dual stain of two gene probes on section of lung tissue testing for ALK rearrangements associated with non-small cell lung cancer. FIG. 8(B) illustrates UV-Vis spectra of fast red and fast blue in ethyl acetate solutions. The 3′ probe was detected using fast red and the 5′ probe was detected using fast blue. FIGS. 9(A) and 9(B) illustrate the traces of FIG. 8(B) separately. […] Comparing this range to the color wheel, the expected color corresponding to the spectral absorption characteristic would be either red or orange. The range of absorption is so large it essentially covers all of those wavelengths one would expect to result in a red or an orange color. […] Again, referring to the color wheel in FIG. 6(A), the absorption from 525-625 nm covers nearly half of the color wheel with blue, indigo, and violet being complementary.

[3] = absorption spectrum of signaling conjugate

Compound: CN(C)c1ccc2c(-c3ccc(C(=O)NCCc4ccc(O)cc4)cc3C(=O)[O-])c3ccc(N(C)C)cc3[o+]c2c1 [5-TAMRA-tyramide conjugate]
full width of the peak at the half maximum absorbance (FWHM) [1, 3]: approximately 40 nm
λmax [1, 3]: 552 nm

λmax ([1]; diazo chromophore moiety itself): about 427 nm
Compound: O=C([O-])C1=NN(c2ccc(S(=O)(=O)[O-])cc2)C(=O)C1N=Nc1ccc(S(=O)(=O)[O-])cc1.[Na+].[Na+].[Na+] (stereo not shown) [Tartrazine]

strong absorption wavelength range [2]: 525-625 nm
Compound: Fast blue
